# Source: patent publication US9273057B2 (Bristol-Myers Squibb Company, priority 2012, dated 2016)
# pIC50: −log10 of the molar value.
# Biological target: CK2A1 (CK2α/β) (Homo sapiens, UniProt P68400)
# Assay: CK2 kinase assay, CK2A1 (CK2α/β)
# Type: biochemical
# Conditions: Table A; read-out: CK2A1 (CK2α/β) (IC50)
# CK2A1 (CK2α/β), sequence (P68400 whole entry, species assumed): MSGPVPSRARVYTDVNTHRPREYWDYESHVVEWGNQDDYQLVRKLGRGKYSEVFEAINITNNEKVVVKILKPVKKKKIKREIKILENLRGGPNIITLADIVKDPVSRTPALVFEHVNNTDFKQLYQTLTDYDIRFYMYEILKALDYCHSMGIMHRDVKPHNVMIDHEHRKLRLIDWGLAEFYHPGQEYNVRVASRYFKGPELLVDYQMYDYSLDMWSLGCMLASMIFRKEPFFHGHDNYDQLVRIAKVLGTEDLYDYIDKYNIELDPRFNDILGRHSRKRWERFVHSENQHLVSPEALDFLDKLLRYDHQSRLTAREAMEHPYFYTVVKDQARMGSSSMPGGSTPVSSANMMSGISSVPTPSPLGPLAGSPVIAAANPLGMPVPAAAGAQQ
# CK2A1 (CK2α/β), sequence (P67870 whole entry partner, species assumed): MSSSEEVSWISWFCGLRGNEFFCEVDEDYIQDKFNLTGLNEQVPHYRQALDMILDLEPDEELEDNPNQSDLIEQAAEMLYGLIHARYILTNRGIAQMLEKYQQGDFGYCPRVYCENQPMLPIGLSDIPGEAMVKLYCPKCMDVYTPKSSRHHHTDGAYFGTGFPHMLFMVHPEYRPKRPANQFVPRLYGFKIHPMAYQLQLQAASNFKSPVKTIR
compound,measurement,value
"CC(C)(O)CNC1CCN(c2cc(C#N)cc(Nc3nc(NC4CC4)c4ncc(C#N)n4n3)c2Cl)CC1 [Example 143, 2-((2-chloro-5-cyano-3-(4-((2-hydroxy-2-methylpropyl)amino)-1-piperidinyl)phenyl)amino)-4-(cyclopropylamino)imidazo [2,1-f][1,2,4]triazine-7-carbonitrile]",pIC50,9.11
"COC[C@H](O)CNC1CCN(c2cc(C#N)cc(Nc3nc(NC4CC4)c4ncc(C#N)n4n3)c2Cl)CC1 [Example 145, 2-((2-chloro-5-cyano-3-(4-(((2R)-2-hydroxy-3-methoxypropyl)amino)-1-piperidinyl)phenyl)amino)-4-(cyclopropylamino)imidazo [2,1-f][1,2,4]triazine-7-carbonitrile]",pIC50,8.26
"COC(=O)NC1CCN(c2cc(C#N)cc(Nc3nc(NC4CC4)c4ncc(C#N)n4n3)c2Cl)CC1 [Example 146, methyl (1-(2-chloro-5-cyano-3-((7-cyano-4-(cyclopropylamino)imidazo [2,1-f][1,2,4]triazin-2-yl)amino)phenyl)-4-piperidinyl)carbamate]",pIC50,8.92
"N#Cc1cc(Nc2nc(NC3CC3)c3ncc(C#N)n3n2)c(Cl)c(N2CCC(N3CC(F)(F)C3)CC2)c1 [Example 147, 2-((2-chloro-5-cyano-3-(4-(3,3-difluoro-1-azetidinyl)-1-piperidinyl)phenyl)amino)-4-(cyclopropylamino)imidazo [2,1-f][1,2,4]triazine-7-carbonitrile]",pIC50,8.93
"CN1CCN(C2CN(c3cc(C#N)cc(Nc4nc(NC5CC5)c5ncc(C#N)n5n4)c3Cl)C2)CC1 [Example 151, 2-((2-chloro-5-cyano-3-(3-(4-methylpiperazin-1-yl)azetidin-1-yl)phenyl)amino)-4-(cyclopropylamino)imidazo[2,1-f][1,2,4]triazine-7-carbonitrile]",pIC50,9.23
"N#Cc1cc(Nc2nc(NC3CC3)c3ncc(C#N)n3n2)c(Cl)c(N2CC(N3CCOCC3)C2)c1 [Example 152, 2-((2-chloro-5-cyano-3-(3-(4-morpholinyl)-1-azetidinyl)phenyl)amino)-4-(cycloproplamino)imidazo [2,1-f][1,2,4]triazine-7-carbonitrile]",pIC50,9.28
"COC(=O)N1CCN(C2CN(c3cc(C#N)cc(Nc4nc(NC5CC5)c5ncc(C#N)n5n4)c3Cl)C2)CC1 [Example 153, methyl 4-(1-(2-chloro-5-cyano-3-((7-cyano-4-(cyclopropylamino)imidazo [2,1-f][1,2,4]triazin-2-yl)amino)phenyl)-3-azetidinyl)-1-piperazinecarboxylate]",pIC50,9.19
"N#Cc1cc(Nc2nc(NC3CC3)c3ncc(C#N)n3n2)c(Cl)c(N2CC(N3CCNCC3)C2)c1 [Example 155, 2-((2-chloro-5-cyano-3-(3-(1-piperazinyl)-1-azetidinyl)phenyl)amino)-4-(cyclopropylamino)imidazo [2,1-f][1,2,4]triazine-7-carbonitrile]",pIC50,9.38
"CN1CCN(C2CN(c3cc(C#N)cc(Nc4nc(NC5CC5)c5ncc(C#N)n5n4)c3Cl)C2)CC1=O [Example 156, 2-((2-chloro-5-cyano-3-(3-(4-methyl-3-oxo-1-piperazinyl)-1-azetidinyl)phenyl)amino)-4-(cyclopropylamino)imidazo [2,1-f][1,2,4]triazine-7-carbonitrile]",pIC50,9.44
"CC1(O)CCN(C2CN(c3cc(C#N)cc(Nc4nc(NC5CC5)c5ncc(C#N)n5n4)c3Cl)C2)CC1 [Example 157, 2-((2-chloro-5-cyano-3-(3-(4-hydroxy-4-methyl-1-piperidinyl)-1-azetidinyl)phenyl)amino)-4-(cyclopropylamino)imidazo [2,1-f][1,2,4]triazine-7-carbonitrile]",pIC50,9.10
CC(C)(O)C1CCN(C2CN(c3cc(C#N)cc(Nc4nc(NC5CC5)c5ncc(C#N)n5n4)c3Cl)C2)CC1 [Example 158],pIC50,9.19
COC1CCN(C2CN(c3cc(C#N)cc(Nc4nc(NC5CC5)c5ncc(C#N)n5n4)c3Cl)C2)CC1 [Example 164],pIC50,9.24
"N#Cc1cnc2c(NC3CC3)nc(Nc3cc(C(N)=O)cc(N4CC(NC5COC5)C4)c3Cl)nn12 [Example 166, 4-chloro-3-((7-cyano-4-(cyclopropylamino)imidazo [2,1-f][1,2,4]triazin-2-yl)amino)-5-(3-(3-oxetanylamino)-1-azetidinyl)benzamide]",pIC50,9.36
"CC1(O)CN(C2CN(c3cc(C#N)cc(Nc4nc(NC5CC5)c5ncc(C#N)n5n4)c3Cl)C2)C1 [Example 168, 2-((2-chloro-5-cyano-3-(3-hydroxy-3-methyl-1,3′-biazetidin-1′-yl)phenyl)amino)-4-(cyclopropylamino)imidazo [2,1-f][1,2,4]triazine-7-carbonitrile]",pIC50,9.17
"C[N+]1([O-])CCN(C2CN(c3cc(C#N)cc(Nc4nc(NC5CC5)c5ncc(C#N)n5n4)c3Cl)C2)CC1 [Example 169, 2-((2-chloro-5-cyano-3-(3-(4-methyl-4-oxido-1-piperazinyl)-1-azetidinyl)phenyl)amino)-4-(cyclopropylamino)imidazo [2,1-f][1,2,4]triazine-7-carbonitrile]",pIC50,8.59
"C[N+]1(C)CCN(C2CN(c3cc(C#N)cc(Nc4nc(NC5CC5)c5ncc(C#N)n5n4)c3Cl)C2)CC1 [Example 170, 4-(1-(2-chloro-5-cyano-3-((7-cyano-4-(cyclopropylamino)imidazo [2,1-f][1,2,4]triazin-2-yl)amino)phenyl)-3-azetidinyl)-1,1-dimethylpiperazin-1-ium]",pIC50,9.03
"CS(=O)(=O)N[C@@H]1CCN(c2cc(C#N)cc(Nc3nc(NC4CC4)c4ncc(C#N)n4n3)c2Cl)C[C@H]1O [Example 175, N-((3R,4R)-1-(2-chloro-5-cyano-3-((7-cyano-4-(cyclopropylamino)imidazo[2,1-f][1,2,4]triazin-2-yl)amino)phenyl)-3-hydroxypiperidin-4-yl)methanesulfonamide]",pIC50,8.97
"N#Cc1cc(Nc2nc(NC3CC3)c3ncc(C#N)n3n2)c(Cl)c(N2CC[C@@H](NC(=O)OCCN3CCOCC3)[C@H](O)C2)c1 [Example 178, 2-morpholinoethyl ((3R,4R)-1-(2-chloro-5-cyano-3-((7-cyano-4-(cyclopropylamino)imidazo[2,1-f][1,2,4]triazin-2-yl)amino)phenyl)-3-hydroxypiperidin-4-yl)carbamate]",pIC50,9.11
"COC(=O)N[C@H]1CCN(c2cc(C#N)cc(Nc3nc(NC4CC4)c4ncc(C#N)n4n3)c2Cl)C[C@@H]1OC(=O)CN [Example 193, (3S,4S)-1-(2-chloro-5-cyano-3-((7-cyano-4-(cyclopropylamino)imidazo[2,1-f][1,2,4]triazin-2-yl)amino)phenyl)-4-((methoxycarbonyl)amino)-3-piperidinyl glycinate]",pIC50,8.22
"COC(=O)N[C@@H]1CCN(c2cc(C#N)cc(Nc3nc(NC4CC4)c4ncc(C#N)n4n3)c2Cl)C[C@H]1OC(=O)C1(N)CC1 [Example 194, (3R,4R)-1-(2-chloro-5-cyano-3-((7-cyano-4-(cyclopropylamino)imidazo[2,1-f][1,2,4]triazin-2-yl)amino)phenyl)-4-((methoxycarbonyl)amino)-3-piperidinyl 1-aminocyclopropanecarboxylate]",pIC50,8.90
"COC(=O)N[C@@H]1CCN(c2cc(C#N)cc(Nc3nc(NC4CC4)c4ncc(C#N)n4n3)c2Cl)C[C@H]1OC(=O)[C@H](C)N [Example 195, (3R,4R)-1-(2-chloro-5-cyano-3-((7-cyano-4-(cyclopropylamino)imidazo[2,1-f][1,2,4]triazin-2-yl)amino)phenyl)-4-((methoxycarbonyl)amino)-3-piperidinyl L-alaninate]",pIC50,9.30
"COC(=O)N[C@@H]1CCN(c2cc(C#N)cc(Nc3nc(NC4CC4)c4ncc(C#N)n4n3)c2Cl)C[C@H]1OC(=O)CN1CCOCC1 [Example 196, (3R,4R)-1-(2-chloro-5-cyano-3-((7-cyano-4-(cyclopropylamino)imidazo[2,1-f][1,2,4]triazin-2-yl)amino)phenyl)-4-((methoxycarbonyl)amino)-3-piperidinyl 4-morpholinylacetate]",pIC50,9.10
"COC(=O)N[C@@H]1CCN(c2cc(C#N)cc(Nc3nc(NC4CC4)c4ncc(C#N)n4n3)c2Cl)C[C@H]1OC(=O)C(C)OP(=O)(O)O (stereo partly drawn) [Example 197, (3R,4R)-1-(2-chloro-5-cyano-3-((7-cyano-4-(cyclopropylamino)imidazo[2,1-f][1,2,4]triazin-2-yl)amino)phenyl)-4-((methoxycarbonyl)amino)-3-piperidinyl 2-(phosphonooxy)propanoate]",pIC50,8.30
"COC(=O)N[C@H]1CCN(c2cc(C#N)cc(Nc3nc(NC4CC4)c4ncc(C#N)n4n3)c2Cl)C[C@@H]1OC(=O)/C=C/C(=O)O [Example 198, (2E)-4-(((3S,4S)-1-(2-chloro-5-cyano-3-((7-cyano-4-(cyclopropylamino)imidazo[2,1-f][1,2,4]triazin-2-yl)amino)phenyl)-4-((methoxycarbonyl)amino)-3-piperidinyl)oxy)-4-oxo-2-butenoic acid]",pIC50,9.19
"COC(=O)N[C@H]1CCN(c2cc(C#N)cc(Nc3nc(NC4CC4)c4ncc(C#N)n4n3)c2Cl)C[C@@H]1OC(=O)Cc1ccc(OP(=O)(O)O)cc1 [Example 199, (3S,4S)-1-(2-chloro-5-cyano-3-((7-cyano-4-(cyclopropylamino)imidazo[2,1-f][1,2,4]triazin-2-yl)amino)phenyl)-4-((methoxycarbonyl)amino)-3-piperidinyl (4-(phosphonooxy)phenyl)acetate]",pIC50,9.35
"COC(=O)Nc1cc(Nc2nc(NC3CC3)c3ncc(C#N)n3n2)c(Cl)c(N2CCN(C)CC2)c1 [Example 200, methyl (4-chloro-3-((7-cyano-4-(cyclopropylamino)imidazo[2,1-f][1,2,4]triazin-2-yl)amino)-5-(4-methylpiperazin-1-yl)phenyl)carbamate]",pIC50,8.60
"COC(=O)Nc1cc(Nc2nc(NC3CC3)c3ncc(C#N)n3n2)c(Cl)c(N2CC(N3CCOCC3)C2)c1 [Example 201, methyl (4-chloro-3-((7-cyano-4-(cyclopropylamino)imidazo[2,1-f][1,2,4]triazin-2-yl)amino)-5-(3-(4-morpholinyl)-1-azetidinyl)phenyl)carbamate]",pIC50,8.53
